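Results reflect a 48-hour exposure of cells in 96-well plates to compound at five concentrations. At the GI50, growth is halved.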 Calls of active or inactive are those of the source. Cut-off read from the data, not from the text of the source: active = GI50 up to about 1.1 µM and inactive = higher.
Key:
Assay in all cases: NCI tumour cell line growth inhibition, 48 h
ACHN = tested on: ACHN
HOP-92 = tested on: HOP-92
HT-29 = tested on: HT-29
NCI-H226 = tested on: NCI-H226
NCI-H23 = tested on: NCI-H23
NCI-H522 = tested on: NCI-H522
OVCAR-5 = tested on: OVCAR-5
OVCAR-8 = tested on: OVCAR-8
SF-268 = tested on: SF-268
SF-539 = tested on: SF-539
SK-MEL-28 = tested on: SK-MEL-28
SW-620 = tested on: SW-620
U-251 = tested on: U-251
UACC-257 = tested on: UACC-257
UACC-62 = tested on: UACC-62
UO-31 = tested on: UO-31
SK-MEL-5 = tested on: SK-MEL-5

Measured: GI50

CCCCCN(CCCCC)C(=O)[C@H](CCC(=O)O)NC(=O)c1cc2ccccc2[nH]1
inactive: ACHN 49.2 µM | HOP-92 32.3 µM | HT-29 59.6 µM | NCI-H226 36.6 µM | NCI-H23 28.2 µM | NCI-H522 20.2 µM | OVCAR-5 > 100 µM | OVCAR-8 77.1 µM | SF-268 33.9 µM | SF-539 41.2 µM | SK-MEL-28 29.8 µM | SW-620 > 100 µM | U-251 35.7 µM | UACC-257 > 100 µM | UACC-62 28.1 µM | UO-31 31 µM

O=C(O)\C=C/C=C/C=C/C=C/C(=O)O
inactive: ACHN > 100 µM | HT-29 > 100 µM | NCI-H226 > 100 µM | NCI-H23 > 100 µM | NCI-H522 > 100 µM | OVCAR-5 > 100 µM | OVCAR-8 > 100 µM | SF-268 > 100 µM | SF-539 > 100 µM | SK-MEL-28 > 100 µM | SK-MEL-5 > 100 µM | SW-620 > 100 µM | U-251 > 100 µM | UACC-257 > 100 µM | UACC-62 90.4 µM | UO-31 > 100 µM

CC1=C(C(=O)Nc2ccc(Cl)c(Cl)c2)C(c2ccco2)C(C(=O)Nc2ccc(Cl)c(Cl)c2)=C(C)N1
inactive: ACHN 5 µM | HOP-92 15.8 µM | HT-29 14.4 µM | NCI-H226 12.5 µM | NCI-H23 17.8 µM | NCI-H522 5.73 µM | OVCAR-5 15.1 µM | OVCAR-8 11.2 µM | SF-268 11.4 µM | SF-539 13.8 µM | SK-MEL-28 11.7 µM | SK-MEL-5 13.7 µM | SW-620 14.6 µM | U-251 11 µM | UACC-257 14.7 µM | UACC-62 12.9 µM | UO-31 10.1 µM

CC(=O)N(C(C)=O)C1=C2c3ccccc3N(S(=O)(=O)c3ccccc3)C2n2c(=O)n(-c3ccccc3)c(=O)n2C1 (stereo not given)
inactive: ACHN 30.9 µM | HOP-92 24.2 µM | HT-29 59 µM | NCI-H23 26.5 µM | NCI-H522 17.1 µM | OVCAR-5 30.6 µM | OVCAR-8 23.3 µM | SF-268 > 100 µM | SF-539 19.9 µM | SK-MEL-28 30 µM | SK-MEL-5 27 µM | SW-620 40.6 µM | U-251 34.4 µM | UACC-257 44.2 µM | UACC-62 18.1 µM | UO-31 29.7 µM

C/C(=N\O)C(CN1CCCCC1)C(c1ccccc1)c1c(O)c2ccccc2oc1=O (stereo not given)
inactive: ACHN > 100 µM | HOP-92 62.1 µM | HT-29 > 100 µM | NCI-H226 > 100 µM | NCI-H23 > 100 µM | NCI-H522 > 100 µM | OVCAR-5 > 100 µM | OVCAR-8 > 100 µM | SF-268 > 100 µM | SF-539 > 100 µM | SK-MEL-28 > 100 µM | SK-MEL-5 > 100 µM | SW-620 > 100 µM | UACC-257 > 100 µM | UACC-62 > 100 µM

NC(=O)N/N=C(/Cc1nc2ccc(C(=O)c3ccccc3)cc2nc1O)C(=O)Nc1ccc(C(F)(F)F)cc1[N+](=O)[O-]
inactive: ACHN > 100 µM | HOP-92 45.7 µM | HT-29 57.4 µM | NCI-H23 84.7 µM | NCI-H522 22.6 µM | OVCAR-5 > 100 µM | OVCAR-8 77.8 µM | SF-268 > 100 µM | SF-539 66.5 µM | SK-MEL-28 > 100 µM | SK-MEL-5 56.2 µM | SW-620 65.2 µM | U-251 75 µM | UACC-257 > 100 µM | UACC-62 38.7 µM | UO-31 51.5 µM

N#Cc1sc2nc3c(c(-c4ccccc4)c2c1N)CCCC3
inactive: ACHN 76.9 µM | HOP-92 30.1 µM | HT-29 > 100 µM | NCI-H226 > 100 µM | NCI-H23 > 100 µM | NCI-H522 66.5 µM | OVCAR-5 > 100 µM | OVCAR-8 > 100 µM | SF-539 23.9 µM | SK-MEL-28 > 100 µM | SW-620 > 100 µM | U-251 39.8 µM | UACC-257 > 100 µM | UACC-62 > 100 µM | UO-31 > 100 µM

c1ccc(COc2cccc3cccnc23)cc1
inactive: ACHN > 100 µM | HOP-92 28.4 µM | HT-29 80.9 µM | NCI-H226 > 100 µM | NCI-H23 44 µM | NCI-H522 50.9 µM | OVCAR-5 > 100 µM | OVCAR-8 > 100 µM | SF-268 28.4 µM | SF-539 > 100 µM | SK-MEL-28 > 100 µM | SK-MEL-5 50.2 µM | SW-620 > 100 µM | UACC-257 > 100 µM | UACC-62 95.9 µM | UO-31 56.9 µM

CC(=O)OCC1OC(n2cc(I)c(=O)[nH]c2=O)C(OC(C)=O)C(OC(C)=O)C1OC(C)=O (stereo not given)
inactive: ACHN > 100 µM | HOP-92 > 100 µM | HT-29 > 100 µM | NCI-H226 > 100 µM | NCI-H23 > 100 µM | NCI-H522 > 100 µM | OVCAR-5 > 100 µM | OVCAR-8 > 100 µM | SF-268 > 100 µM | SK-MEL-28 > 100 µM | SK-MEL-5 > 100 µM | SW-620 > 100 µM | U-251 > 100 µM | UACC-257 > 100 µM | UACC-62 > 100 µM | UO-31 > 100 µM

COC1OC(C)C(OCc2ccccc2)C(OS(=O)(=O)c2ccc(C)cc2)C1OS(=O)(=O)c1ccc(C)cc1 (stereo not given)
inactive: ACHN > 100 µM | HT-29 > 100 µM | NCI-H226 > 100 µM | NCI-H23 > 100 µM | NCI-H522 > 100 µM | OVCAR-5 > 100 µM | OVCAR-8 > 100 µM | SF-268 > 100 µM | SF-539 > 100 µM | SK-MEL-28 > 100 µM | SK-MEL-5 > 100 µM | SW-620 > 100 µM | U-251 > 100 µM | UACC-257 > 100 µM | UO-31 > 100 µM

CCCCOC(=O)NC(=O)c1cn(CCCOC(=O)NCCCCCCNC(=O)OCCCn2cc(C(=O)NC(=O)OCCCC)c(=O)[nH]c2=O)c(=O)[nH]c1=O
inactive: ACHN > 100 µM | HOP-92 23.6 µM | HT-29 > 100 µM | NCI-H23 44.6 µM | NCI-H522 > 100 µM | OVCAR-5 > 100 µM | OVCAR-8 > 100 µM | SF-268 > 100 µM | SF-539 > 100 µM | SK-MEL-28 > 100 µM | SK-MEL-5 > 100 µM | SW-620 > 100 µM | U-251 > 100 µM | UACC-257 > 100 µM | UACC-62 > 100 µM | UO-31 > 100 µM

C#CCOCn1cnc2c(S)ncnc21
inactive: ACHN > 100 µM | HOP-92 > 100 µM | HT-29 > 100 µM | NCI-H226 > 100 µM | NCI-H23 > 100 µM | NCI-H522 > 100 µM | OVCAR-5 > 100 µM | OVCAR-8 > 100 µM | SF-268 > 100 µM | SK-MEL-28 > 100 µM | SK-MEL-5 > 100 µM | SW-620 > 100 µM | U-251 > 100 µM | UACC-257 > 100 µM | UACC-62 > 100 µM | UO-31 > 100 µM

— ChEMBL document CHEMBL1201862, “PubChem BioAssay data set” (2004)
